From US20250332178A1, “METHODS OF TREATING MYCOBACTERIAL INFECTIONS USING TETRACYCLINE COMPOUNDS” (priority 2018, published 2025)
Like-named read-outs stand apart in the source and are kept apart here.

How the values were obtained:
[1] = test system: M. mucogenium group; assay: MIC (CLSI broth dilution), RGM isolates; assay type: cell-based; conditions: read-out: MIC
[2] = test system: M. simiae; assay: MIC (CLSI broth dilution), slow-growing NTM isolates; assay type: cell-based; conditions: read-out: MIC
[3] = test system: M. intracellulare; assay: as above; assay type: cell-based; conditions: Mycobacterium intracellulare, read-out: MIC
[4] = test system: M. arupense; assay: as above; assay type: cell-based; conditions: isolate 11, Other; read-out: MIC
[5] = test system: M. avium; assay: as above; assay type: cell-based; conditions: Mycobacterium avium, read-out: MIC
[6] = test system: M. chimaera; assay: as above; assay type: cell-based; conditions: read-out: MIC
[7] = test system: M. abscessus complex; assay: MIC (CLSI broth dilution), RGM isolates; assay type: cell-based; conditions: Mycobacteroides abscessus, read-out: MIC
[8] = test system: rapid-growing mycobacteria (RGM) isolates; assay: MIC (CLSI broth dilution), all RGM isolates; assay type: cell-based, nontuberculous mycobacteria; conditions: all 50 RGM isolates; for MIC50: read-out: MIC50; for MIC90: read-out: MIC90
[9] = test system: M. fortuitum group; assay: MIC (CLSI broth dilution), RGM isolates; assay type: cell-based; conditions: Mycolicibacterium fortuitum, read-out: MIC
[10] = test system: M. chelonae; assay: MIC (CLSI broth dilution), RGM isolates; assay type: cell-based; conditions: Mycobacteroides chelonae, read-out: MIC
[11] = test system: M. immunogenum group; assay: MIC (CLSI broth dilution), RGM isolates; assay type: cell-based; conditions: M. immunogenum, read-out: MIC
[12] = test system: M. smegmatis group; assay: MIC (CLSI broth dilution), RGM isolates; assay type: cell-based; conditions: Mycolicibacterium smegmatis, read-out: MIC
[13] = test system: slow-growing NTM isolates; assay: MIC (CLSI broth dilution), all slow-growing NTM isolates; assay type: cell-based, nontuberculous mycobacteria; conditions: all slow-growing NTM isolates; for MIC50: read-out: MIC50; for MIC90: read-out: MIC90
[14] = test system: M. abscessus; conditions: strains of M. abscessus; Wallace et al.; cited from earlier work
[15] = isolate 39, M. mucogenicum group, M. mucogenicum
[16] = isolate 40, M. mucogenicum group, M. mucogenicum
[17] = isolate 41, M. mucogenicum group, M. mucogenicum
[18] = isolate 42, M. mucogenicum group, M. mucogenicum
[19] = isolate 43, M. mucogenicum group, M. phocaicum
[20] = isolate 44, M. mucogenicum group, M. phocaicum
[21] = isolate 45, M. mucogenicum group, M. phocaicum
[22] = isolate 46, M. mucogenicum group, M. phocaicum
[23] = isolate 47, M. mucogenicum group, M. phocaicum
[24] = isolate 48, M. mucogenicum group, M. phocaicum
[25] = isolate 1, M. abscessus complex, erm gene type MAB30
[26] = isolate 2, M. abscessus complex, erm gene type MAB30
[27] = isolate 3, M. abscessus complex, erm gene type MAB30
[28] = isolate 4, M. abscessus complex, erm gene type massiliense
[29] = isolate 5, M. abscessus complex, erm gene type massiliense/subsp. abs hybrid
[30] = isolate 6, M. abscessus complex, erm gene type Type 1 abscessus
[31] = isolate 7, M. abscessus complex, erm gene type Type 1 abscessus
[32] = isolate 8, M. abscessus complex, erm gene type Type 1 abscessus
[33] = isolate 9, M. abscessus complex, erm gene type Type 1 abscessus
[34] = isolate 10, M. abscessus complex, erm gene type Type 1 abscessus
[35] = isolate 11, M. abscessus complex, erm gene type Type 6 abscessus
[36] = isolate 12, M. abscessus complex, erm gene type Type 6 abscessus
[37] = isolate 13, M. abscessus complex, erm gene type Type 6 abscessus
[38] = isolate 14, M. abscessus complex, erm gene type Type 6 abscessus
[39] = isolate 15, M. abscessus complex, erm gene type Type 7 abscessus
[40] = isolate 16, M. abscessus complex, erm gene type Type 7 abscessus
[41] = isolate 17, M. abscessus complex, erm gene type Type 8 abscessus
[42] = isolate 23, M. fortuitum group, M. fortuitum
[43] = isolate 24, M. fortuitum group, M. fortuitum
[44] = isolate 25, M. fortuitum group, M. fortuitum
[45] = isolate 26, M. fortuitum group, M. porcinum
[46] = isolate 27, M. fortuitum group, M. porcinum
[47] = isolate 28, M. fortuitum group, M. porcinum/M. boenickei
[48] = isolate 29, M. fortuitum group, M. porcinum/M. boenickei
[49] = isolate 30, M. fortuitum group, M. porcinum/M. boenickei
[50] = isolate 31, M. fortuitum group, M. senegalense
[51] = isolate 32, M. fortuitum group, M. senegalense
[52] = isolate 33, M. fortuitum group, M. senegalense
[53] = isolate 34, M. fortuitum group, M. senegalense
[54] = isolate 35, M. immunogenum group
[55] = isolate 36, M. immunogenum group
[56] = isolate 37, M. immunogenum group
[57] = isolate 38, M. immunogenum group
[58] = isolate 49, M. smegmatis group, M. goodii
[59] = isolate 50, M. smegmatis group, M. wolinskyi

COc1c(N2C[C@@H]3CCCN[C@@H]3C2)c(F)cc2c(=O)c(C(=O)O)cn(C3CC3)c12 [MXF, moxifloxacin]
2 mg/L: MIC ([2]; isolate 14, Other) | MIC ([3]; isolate 6, MAC) | MIC ([3]; isolate 8, MAC) | MIC ([3]; isolate 9, MAC) | MIC ([5]; isolate 1, MAC) | MIC ([6]; isolate 5, MAC) | MIC50 [8] | MIC ([10]; isolate 20, M. chelonae) | MIC ([10]; isolate 22, M. chelonae) | MIC50 [13]
0.12 mg/L: MIC [1, 15] | MIC [9, 46] | MIC [9, 48] | MIC [9, 50] | MIC [9, 51] | MIC [9, 52] | MIC [9, 53]
> 16 mg/L: MIC [4] | MIC ([10]; isolate 21, M. chelonae)
16 mg/L: MIC [7, 27] | MIC [7, 28] | MIC [7, 30] | MIC [7, 32] | MIC90 [8] | MIC [11, 56] | MIC [11, 57]
8 mg/L: MIC ([2]; isolate 15, Other) | MIC [7, 25] | MIC [7, 26] | MIC [7, 31] | MIC [7, 33] | MIC [7, 35] | MIC [7, 37] | MIC [7, 38] | MIC [7, 39] | MIC ([10]; isolate 19, M. chelonae) | MIC [11, 54] | MIC90 [13]
4 mg/L: MIC ([2]; isolate 13, Other) | MIC ([5]; isolate 3, MAC) | MIC ([6]; isolate 4, MAC) | MIC [7, 29] | MIC [7, 34] | MIC [7, 36] | MIC [7, 40] | MIC [7, 41] | MIC ([10]; isolate 18, M. chelonae) | MIC [11, 55]
≤ 0.06 mg/L: MIC [9, 42] | MIC [9, 43] | MIC [9, 44] | MIC [9, 45] | MIC [9, 49] | MIC [12, 58]
0.25 mg/L: MIC [1, 16] | MIC [1, 17] | MIC [1, 19] | MIC ([5]; isolate 2, MAC) | MIC [9, 47] | MIC [12, 59]
1 mg/L: MIC [1, 21] | MIC [1, 22] | MIC [1, 24] | MIC ([3]; isolate 7, MAC)
0.5 mg/L: MIC [1, 18] | MIC [1, 20] | MIC [1, 23] | MIC ([3]; isolate 10, MAC)

CN(C)c1cc(CNCC(C)(C)C)c(O)c2c1C[C@H]1C[C@H]3[C@H](N(C)C)C(O)=C(C(N)=O)C(=O)[C@@]3(O)C(O)=C1C2=O [OMC]
0.12 mg/L: MIC [7, 28] | MIC [7, 30] | MIC [7, 31] | MIC [7, 32] | MIC [7, 33] | MIC [7, 34] | MIC [7, 35] | MIC [7, 36] | MIC [7, 38] | MIC [7, 39] | MIC [9, 42] | MIC [9, 43] | MIC [9, 44] | MIC [9, 46] | MIC [9, 49] | MIC [9, 51] | MIC [9, 52] | MIC [9, 53] | MIC ([10]; isolate 18, M. chelonae) | MIC ([10]; isolate 20, M. chelonae) | MIC ([10]; isolate 21, M. chelonae)
1 mg/L: MIC [1, 17] | MIC [1, 19] | MIC [1, 22] | MIC [1, 23]
0.5 mg/L: MIC [1, 18] | MIC [1, 20] | MIC [1, 21] | MIC90 [8] | MIC [11, 54] | MIC [11, 56] | MIC [11, 57] | MIC [12, 59]
> 16 mg/L: MIC ([2]; isolate 13, Other) | MIC ([2]; isolate 14, Other) | MIC ([2]; isolate 15, Other) | MIC ([3]; isolate 6, MAC) | MIC ([3]; isolate 7, MAC) | MIC ([3]; isolate 8, MAC) | MIC ([3]; isolate 9, MAC) | MIC ([3]; isolate 10, MAC) | MIC [4] | MIC ([5]; isolate 1, MAC) | MIC ([5]; isolate 2, MAC) | MIC ([5]; isolate 3, MAC) | MIC ([6]; isolate 4, MAC) | MIC ([6]; isolate 5, MAC) | MIC50 [13] | MIC90 [13]
0.25 mg/L: MIC [1, 15] | MIC [1, 16] | MIC [1, 24] | MIC [7, 25] | MIC [7, 26] | MIC [7, 27] | MIC [7, 29] | MIC [7, 37] | MIC [7, 40] | MIC50 [8] | MIC [9, 47] | MIC [9, 48] | MIC [9, 50] | MIC ([10]; isolate 19, M. chelonae) | MIC ([10]; isolate 22, M. chelonae) | MIC [11, 55]
0.06 mg/L: MIC [7, 41] | MIC [9, 45] | MIC [12, 58]

CN(C)[C@@H]1C(=O)C(C(N)=O)=C(O)[C@@]2(O)C(=O)C3=C(O)c4c(O)cccc4[C@@](C)(O)[C@H]3C[C@@H]12 [tetracycline]
very low activity: in vitro activity (in words) [14]
